# The supplement of paper PMC10307832
# What was measured:
# Assay in all cases: relative viability (nuclei count vs DMSO), 5 days (fraction); higher = more cells survive
# [1] = compound: C1COCCN1C2=NC(=NC3=C2OC4=C3C=CC=N4)C5=CC(=CC=C5)NC(=O)C6=CN=C(C=C6)N + Cc1nc(NC(=O)N2CCC[C@H]2C(N)=O)sc1-c1ccnc(C(C)(C)C(F)(F)F)c1 [Alpelisib] (partner 2 µM)
# In short: (§1)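 After 5 days of treatment, lung cancer cells in 1536-well plates were fixed and stained in a single step (final 0.05% Triton X-100, 1% formaldehyde, 1 ug/ml Hoechst) and their nuclei counted on 4× images. Treatment had been applied by pin tool the day after seeding as one drug alone or as a fixed anchor-drug dose with five library-drug doses (not always all listed) in √10 steps. Relative viability is the nuclei count of treated wells divided by that of vehicle wells, and values are medians of duplicate plates.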
# [2] = compound: C1COCCN1C2=NC(=NC3=C2OC4=C3C=CC=N4)C5=CC(=CC=C5)NC(=O)C6=CN=C(C=C6)N + Cc1nc(Nc2ncc(C(=O)Nc3c(C)cccc3Cl)s2)cc(N2CCN(CCO)CC2)n1 [Dasatinib] (partner 0.075 µM)
# In short: as §1
# [3] = compound: CN1CCC(CNc2ccc3ncc(-c4cccc(OC(F)(F)F)c4)n3n2)CC1 [SGI-1776] + COc1cccc2cc(-c3nc([C@H]4CC[C@H](C(=O)O)CC4)n4ncnc(N)c34)[nH]c12 [OSI-027] (partner 0.5 µM)
# In short: as §1
# [4] = compound: CN1CCC(CNc2ccc3ncc(-c4cccc(OC(F)(F)F)c4)n3n2)CC1 [SGI-1776] + Nc1nc2[nH]cc(CCc3ccc(C(=O)N[C@@H](CCC(=O)O)C(=O)O)cc3)c2c(=O)[nH]1 [Pemetrexed] (partner 0.2 µM)
# In short: as §1
Cell Line,relative viability ([1]; first compound 0.02 µM),relative viability ([1]; first compound 0.06325 µM),relative viability ([1]; first compound 0.2 µM),relative viability ([1]; first compound 0.6325 µM),relative viability ([1]; first compound 2 µM),relative viability ([2]; first compound 0.02 µM),relative viability ([2]; first compound 0.06325 µM),relative viability ([2]; first compound 0.2 µM),relative viability ([2]; first compound 0.6325 µM),relative viability ([2]; first compound 2 µM),relative viability ([3]; first compound 0.08 µM),relative viability ([3]; first compound 0.8 µM),relative viability ([3]; first compound 2.53 µM),relative viability ([3]; first compound 8 µM),relative viability ([4]; first compound 0.08 µM),relative viability ([4]; first compound 0.8 µM),relative viability ([4]; first compound 2.53 µM),relative viability ([4]; first compound 8 µM)
NCI-H1975,0.677,0.705,0.548,0.567,0.352,0.362,0.388,0.298,0.296,0.187,0.72,0.688,0.525,0.428,0.29,0.288,0.289,0.273
NCI-H2023,0.68,0.621,0.544,0.438,0.359,0.632,0.648,0.47,0.484,0.251,0.415,0.388,0.319,0.167,0.282,0.222,0.244,0.174
COR-L 105,0.912,1.02,0.801,0.705,0.583,0.307,0.363,0.22,0.308,0.284,0.746,0.716,0.658,0.38,1.06,1.14,1.11,1.09
NCI-H2170,0.847,0.887,0.682,0.854,0.496,0.561,0.507,0.551,0.538,0.618,0.741,0.671,0.666,0.67,0.225,0.287,0.254,0.295
NCI-H1993,0.651,0.624,0.691,0.697,0.595,0.553,0.552,0.594,0.572,0.492,0.549,0.52,0.551,0.525,0.61,0.569,0.559,0.548
NCI-H322M,0.81,0.773,0.768,0.638,0.665,0.251,0.251,0.241,0.274,0.234,0.514,0.54,0.661,0.475,0.648,0.65,0.59,0.504
NCI-H2405,0.664,0.716,0.803,0.815,0.622,0.209,0.229,0.223,0.215,0.213,0.643,0.659,0.549,0.568,1.13,1.1,0.949,0.857
HCC-78,0.34,0.331,0.378,0.324,0.318,0.406,0.449,0.456,0.345,0.403,0.407,0.418,0.385,0.398,0.894,0.875,0.908,0.939
COR-L23,0.958,0.876,0.844,0.868,0.589,0.505,0.604,0.451,0.472,0.327,0.781,0.87,0.74,0.582,0.212,0.188,0.2,0.18
NCI-H2009,1.26,1.24,1.16,1.11,0.838,0.245,0.278,0.215,0.219,0.215,0.653,0.636,0.591,0.282,0.912,1.05,1.15,0.954
NCI-H3122,0.808,0.798,0.681,0.772,0.676,0.796,0.786,0.787,0.868,0.657,0.988,0.967,0.926,0.862,0.202,0.201,0.198,0.193
NCI-H2228,0.737,0.707,0.66,0.493,0.317,0.647,0.487,0.439,0.33,0.246,0.644,0.582,0.425,0.275,0.369,0.392,0.332,0.33
NCI-H1944,0.894,0.705,0.851,0.782,0.731,0.201,0.211,0.206,0.215,0.207,0.436,0.428,0.344,0.342,0.727,0.757,0.591,0.559
NCI-H358,0.928,0.925,0.783,0.943,0.486,–,0.134,0.109,0.152,0.15,0.747,0.856,0.663,0.304,0.177,0.218,0.168,0.161
NCI-H1755,1.07,1,0.965,0.863,0.397,0.499,0.408,0.409,0.346,0.256,0.703,0.637,0.533,0.529,0.465,0.443,0.425,0.372
A-427,1.13,1.11,1.04,0.907,0.798,0.805,0.77,0.61,0.648,0.589,0.543,0.481,0.479,0.357,1.01,1.05,0.944,0.897
